Laboratory results reported in ChEMBL document CHEMBL5465560, “Selectivity Literature for EUbOPEN Chemogenomic Library” (2024).
Values belong to the compound of their own block, whether it stands above or below them.

Columns and labels:
[1] = target: T1, Tyrosine-protein kinase receptor TYRO3 (Homo sapiens) (UniProt Q06418); assay: Selectivity interaction (SelectScreen profiling (Invitrogen)) EUB0000607a TYRO3; details: at 2 µM
T1 sequence (whole entry): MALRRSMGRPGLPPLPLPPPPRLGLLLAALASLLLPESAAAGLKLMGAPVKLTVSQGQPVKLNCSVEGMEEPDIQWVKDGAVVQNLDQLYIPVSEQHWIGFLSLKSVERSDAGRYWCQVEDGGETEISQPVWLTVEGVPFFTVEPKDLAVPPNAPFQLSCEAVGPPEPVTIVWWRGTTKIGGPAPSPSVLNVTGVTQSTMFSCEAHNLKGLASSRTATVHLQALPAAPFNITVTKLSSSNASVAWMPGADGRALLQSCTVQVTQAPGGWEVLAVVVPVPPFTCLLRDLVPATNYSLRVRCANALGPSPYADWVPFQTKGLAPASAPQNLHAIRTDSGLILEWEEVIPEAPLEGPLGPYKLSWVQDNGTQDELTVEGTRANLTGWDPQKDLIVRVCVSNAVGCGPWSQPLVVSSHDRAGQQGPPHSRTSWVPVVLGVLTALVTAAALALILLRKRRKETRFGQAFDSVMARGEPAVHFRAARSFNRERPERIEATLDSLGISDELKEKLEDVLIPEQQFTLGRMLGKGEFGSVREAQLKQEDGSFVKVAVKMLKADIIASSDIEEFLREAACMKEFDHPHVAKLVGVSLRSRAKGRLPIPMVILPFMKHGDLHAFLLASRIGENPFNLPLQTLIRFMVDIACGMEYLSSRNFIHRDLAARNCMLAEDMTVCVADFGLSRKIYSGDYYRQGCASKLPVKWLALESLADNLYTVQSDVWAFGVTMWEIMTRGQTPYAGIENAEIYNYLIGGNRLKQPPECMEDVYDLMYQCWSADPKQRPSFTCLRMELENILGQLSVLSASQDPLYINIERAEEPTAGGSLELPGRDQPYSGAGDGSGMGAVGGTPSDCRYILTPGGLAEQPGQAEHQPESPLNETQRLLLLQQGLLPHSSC

[2] = target: CDK1/Cyclin A (Homo sapiens) (UniProt P06493+P20248); assay: (§1) Selectivity interaction (ProQinase) EUB0000171b CDK1; format: protein-complex assay
[3] = target: Cyclin-dependent kinase 1/cyclin B1 (Homo sapiens) (UniProt P06493+P14635); assay: as §1; format: protein-complex assay
[4] = target: CDK1/Cyclin E (Homo sapiens) (UniProt P06493+P24864); assay: as §1; format: protein-complex assay
[5] = target: T2, Serine/threonine-protein kinase ULK3 (Homo sapiens) (UniProt Q6PHR2); assay: Selectivity interaction (KinomeScan (DiscoverX)) EUB0001049a ULK3; details: at 1 µM
T2 sequence (whole entry): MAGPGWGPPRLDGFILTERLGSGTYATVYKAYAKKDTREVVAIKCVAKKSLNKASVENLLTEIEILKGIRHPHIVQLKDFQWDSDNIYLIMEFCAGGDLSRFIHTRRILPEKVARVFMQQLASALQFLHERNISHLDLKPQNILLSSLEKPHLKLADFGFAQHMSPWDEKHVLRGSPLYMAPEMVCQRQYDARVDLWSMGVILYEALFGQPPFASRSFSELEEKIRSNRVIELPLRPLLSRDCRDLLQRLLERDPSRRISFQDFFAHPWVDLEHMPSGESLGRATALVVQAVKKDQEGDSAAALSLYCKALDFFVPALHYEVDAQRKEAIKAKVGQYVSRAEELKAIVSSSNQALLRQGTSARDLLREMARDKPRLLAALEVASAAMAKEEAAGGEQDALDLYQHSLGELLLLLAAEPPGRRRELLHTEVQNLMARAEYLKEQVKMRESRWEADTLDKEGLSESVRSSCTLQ

[6] = target: T3, Serine/threonine-protein kinase 3 (Homo sapiens) (UniProt Q13188); assay: Selectivity interaction (KinomeScan (DiscoverX)) EUB0000092b STK3; details: at 10 µM
T3 sequence (whole entry): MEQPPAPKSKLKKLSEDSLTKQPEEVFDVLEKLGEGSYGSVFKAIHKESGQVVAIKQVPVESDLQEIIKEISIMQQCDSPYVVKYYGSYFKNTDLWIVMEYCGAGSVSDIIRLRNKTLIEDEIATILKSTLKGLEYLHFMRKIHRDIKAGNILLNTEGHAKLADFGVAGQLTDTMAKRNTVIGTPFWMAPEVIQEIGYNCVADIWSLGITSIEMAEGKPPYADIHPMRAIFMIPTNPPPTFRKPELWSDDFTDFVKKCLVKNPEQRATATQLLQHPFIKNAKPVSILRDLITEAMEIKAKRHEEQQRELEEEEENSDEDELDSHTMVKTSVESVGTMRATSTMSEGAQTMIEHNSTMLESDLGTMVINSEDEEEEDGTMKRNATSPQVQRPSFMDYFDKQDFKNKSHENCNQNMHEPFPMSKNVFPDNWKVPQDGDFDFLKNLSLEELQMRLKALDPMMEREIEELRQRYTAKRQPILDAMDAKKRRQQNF

[7] = target: T4, Non-receptor tyrosine-protein kinase TNK1 (Homo sapiens) (UniProt Q13470); assay: Selectivity interaction (Kinase panel (Carna Biosciences)) EUB0001542aTs TNK1; details: at 1 µM
T4 sequence (whole entry): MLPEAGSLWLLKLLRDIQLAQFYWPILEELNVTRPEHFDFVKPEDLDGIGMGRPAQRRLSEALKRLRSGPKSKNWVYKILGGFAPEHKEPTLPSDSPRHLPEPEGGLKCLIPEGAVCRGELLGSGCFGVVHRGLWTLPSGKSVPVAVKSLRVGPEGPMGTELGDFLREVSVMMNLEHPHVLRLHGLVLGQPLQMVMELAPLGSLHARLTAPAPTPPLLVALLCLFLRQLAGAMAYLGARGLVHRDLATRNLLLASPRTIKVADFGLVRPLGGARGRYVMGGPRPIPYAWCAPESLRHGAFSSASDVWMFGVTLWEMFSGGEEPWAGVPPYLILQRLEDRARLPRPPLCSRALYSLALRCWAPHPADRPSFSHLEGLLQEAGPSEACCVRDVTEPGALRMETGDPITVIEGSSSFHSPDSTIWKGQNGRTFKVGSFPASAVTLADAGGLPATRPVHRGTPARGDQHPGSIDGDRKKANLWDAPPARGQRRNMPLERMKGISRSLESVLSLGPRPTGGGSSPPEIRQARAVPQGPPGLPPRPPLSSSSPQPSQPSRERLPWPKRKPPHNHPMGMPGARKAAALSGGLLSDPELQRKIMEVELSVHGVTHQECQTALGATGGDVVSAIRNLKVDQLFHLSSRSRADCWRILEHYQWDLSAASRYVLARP

Chain of CDK1/Cyclin E (Homo sapiens) (P06493 whole entry, looked up): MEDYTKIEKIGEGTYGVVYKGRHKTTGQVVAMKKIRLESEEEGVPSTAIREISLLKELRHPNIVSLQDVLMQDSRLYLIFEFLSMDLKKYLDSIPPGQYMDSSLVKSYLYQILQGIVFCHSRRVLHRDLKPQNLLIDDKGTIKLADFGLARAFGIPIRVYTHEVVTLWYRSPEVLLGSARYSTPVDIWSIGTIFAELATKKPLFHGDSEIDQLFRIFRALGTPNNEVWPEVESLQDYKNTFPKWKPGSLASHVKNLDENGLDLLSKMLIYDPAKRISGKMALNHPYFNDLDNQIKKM
Chain of CDK1/Cyclin E (Homo sapiens) (P24864 whole entry, looked up): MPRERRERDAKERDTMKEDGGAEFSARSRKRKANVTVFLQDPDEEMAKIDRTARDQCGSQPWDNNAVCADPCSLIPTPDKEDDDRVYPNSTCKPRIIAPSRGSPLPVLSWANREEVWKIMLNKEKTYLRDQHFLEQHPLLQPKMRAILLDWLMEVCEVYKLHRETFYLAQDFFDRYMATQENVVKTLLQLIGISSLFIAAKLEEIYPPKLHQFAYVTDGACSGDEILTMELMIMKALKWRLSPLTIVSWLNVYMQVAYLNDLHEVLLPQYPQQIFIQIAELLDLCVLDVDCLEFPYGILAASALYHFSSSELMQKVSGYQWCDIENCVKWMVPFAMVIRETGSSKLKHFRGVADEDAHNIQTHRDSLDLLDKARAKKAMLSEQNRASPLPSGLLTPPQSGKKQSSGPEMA
Chain of CDK1/Cyclin A (Homo sapiens) (P06493 whole entry, looked up): as the sequence (P06493 whole entry, looked up) above
Chain of CDK1/Cyclin A (Homo sapiens) (P20248 whole entry, looked up): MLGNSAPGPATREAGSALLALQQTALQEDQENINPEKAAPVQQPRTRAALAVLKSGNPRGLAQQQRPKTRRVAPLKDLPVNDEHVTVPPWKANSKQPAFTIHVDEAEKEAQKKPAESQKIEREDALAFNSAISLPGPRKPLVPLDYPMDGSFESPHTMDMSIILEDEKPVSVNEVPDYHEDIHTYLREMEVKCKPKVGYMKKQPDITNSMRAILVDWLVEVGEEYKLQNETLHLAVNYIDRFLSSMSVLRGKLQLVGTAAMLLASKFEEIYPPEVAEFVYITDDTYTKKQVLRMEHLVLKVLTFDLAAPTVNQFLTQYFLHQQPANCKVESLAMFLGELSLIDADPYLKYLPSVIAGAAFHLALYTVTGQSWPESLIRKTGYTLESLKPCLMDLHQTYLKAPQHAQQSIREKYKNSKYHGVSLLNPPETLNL
Chain of Cyclin-dependent kinase 1/cyclin B1 (Homo sapiens) (P06493 whole entry, looked up): as the sequence (P06493 whole entry, looked up) above
Chain of Cyclin-dependent kinase 1/cyclin B1 (Homo sapiens) (P14635 whole entry, looked up): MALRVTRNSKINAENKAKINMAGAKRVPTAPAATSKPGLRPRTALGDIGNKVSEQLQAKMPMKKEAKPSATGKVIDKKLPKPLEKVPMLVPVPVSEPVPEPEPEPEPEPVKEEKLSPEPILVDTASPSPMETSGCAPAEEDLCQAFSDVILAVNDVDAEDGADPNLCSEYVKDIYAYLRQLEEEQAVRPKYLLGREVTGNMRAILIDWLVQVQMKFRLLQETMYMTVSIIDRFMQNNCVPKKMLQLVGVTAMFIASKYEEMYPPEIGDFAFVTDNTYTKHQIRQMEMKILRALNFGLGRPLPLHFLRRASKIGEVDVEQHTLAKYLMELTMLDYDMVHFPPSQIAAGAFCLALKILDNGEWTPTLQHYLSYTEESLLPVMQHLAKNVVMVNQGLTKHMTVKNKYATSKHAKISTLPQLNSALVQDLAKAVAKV

Structure (SMILES): CNC(=O)Nc1ccc(-c2nc(N3CC4CCC(C3)O4)c3cnn(C4CCC5(CC4)OCCO5)c3n2)cc1
- % of inhibition [1]: 9%

- % of control ([2]; at 1 µM): 89%
- % of control ([2]; at 5 µM): 79%
- % of control ([3]; at 1 µM): 94%
- % of control ([3]; at 5 µM): 77%
- % of control ([4]; at 1 µM): 90%
- % of control ([4]; at 5 µM): 74%
Structure (SMILES): C=CC(=O)Nc1cccc(C(=O)Nc2ccc(Nc3cc(-c4[nH]c(SC)nc4C)ccn3)cc2)c1

Structure (SMILES): COc1cc(Nc2nc(C)cc(-c3cnn4nc(OC)ccc34)n2)cc(C(F)(F)F)c1
- % of control [5]: 79%

Structure (SMILES): CCC(=O)N1CCN(c2ccc(-n3c(=O)ccc4cnc5ccc(-c6cnc7ccccc7c6)cc5c43)cc2C(F)(F)F)CC1
- % of control [6]: 24%

- % of inhibition [7]: 64%
Structure (SMILES): Cn1cc(Nc2nccc(N3CC4CCC(C3)N4C(=O)[C@@H]3CC3(F)F)n2)cn1
